According to patent US11897796B2, “Compositions of heterocyclic compounds and uses as sulfidogenesis inhibitors” (ChampionX USA Inc., priority 2020, dated 2024):
Like-named read-outs stand apart in the source and are kept apart here.

What was measured:
[1] = system: sulfur-utilizing prokaryotes; conditions: after 8 weeks; for Average reduction in biogenic sulfide: compared to untreated; for Average Sulfide: field water, 37° C.
Experimental: Sample Preparation and Test Conditions. Field water samples were collected and shipped under anoxic conditions. Prior to setting up the bottle test, the water was sparged with carbon dioxide in a nitrogen environment overnight to remove the existing hydrogen sulfide. The water sample was then supplemented with 50 mg/L acetate, 5 mg/L propionate, and 5 mg/L butyrate and trace elements and vitamins. Fluids (100 mL) were aliquoted into 125 mL glass serum bottles containing a carbon steel 1018 ball bearing. Triplicate experiments were performed. Three bottles were left untreated and three bottles were treated each with 50 ppm and 80 ppm of the desired chemistry. Samples were incubated at 37° C. for 8 weeks.
(§1) A sulfide test kit (Code 4456-01, available from LaMotte) was used to test the efficacy of 3,3′-methylenebis[5-methyloxazolidine]

[2] = system: sulfur-utilizing prokaryotes; conditions: after 6 weeks; for Average Sulfide: Source 2 field water, 37° C.
Experimental: Sample Preparation and Test Conditions. Field water samples were treated with additional organic acids (e.g., Source 2) and were collected and shipped under anoxic conditions. Prior to setting up the bottle test, the water was sparged with carbon dioxide in a nitrogen environment overnight to remove the existing hydrogen sulfide. The water sample was then supplemented with 1 mM acetate, trace elements, and vitamins. Fluids (100 mL) were aliquoted into 125 mL glass serum bottles containing a carbon steel 1018 ball bearing. Triplicate experiments were performed. Three bottles were left untreated and three bottles were treated each at a concentration of 80 ppm, 120 ppm, and 150 ppm of the desired chemistry based on the total weight of the sample. Samples were incubated at 37° C. for 6 weeks.
as §1

[3] = system: sulfate reducing microorganisms
Experimental: Sample preparation and test conditions. The sulfidogenesis inhibitor MBO was tested using a pressurized bioreactor system. Two sand packed bioreactors were used to establish a sour population of sulfate reducing microorganisms with a seawater mixture for one month. The pressurized bioreactors maintained a flow rate of 0.05 mL/minute and were held at a temperature of 30° C. and a pressure of 1000 psig. Once both bioreactors contained sufficient sulfide in the effluent, one bioreactor remained untreated (control bioreactor) and the other bioreactor was dosed with MBO (test bioreactor) throughout the remaining four months of the study. The sulfide levels were measured in the control and test bioreactors weekly. MBO was dosed continuously in increasing increments at 25, 50, 100, and 150 ppm for roughly five weeks of the experiment. Next, a 4-hour batch treatment of MBO at 500 ppm was also tested twice followed by a low continuous dosage of MBO at 80 ppm and 100 ppm, respectively. The pH of the system was then decreased from 8.5 to 7.5 and then 7.5 to 6.5 to observe the effect of pH on MBO's efficacy at inhibiting sulfidogenesis. Once the pH of the bioreactor had stabilized at 6.5, MBO was dosed continuously in decreasing increments at 150 ppm, 100 ppm, 80 ppm and 50 ppm. At the end of the study, the dosing of MBO was ceased to monitor when sulfide levels would return in the test bioreactor.
The pH measured in the system and the dosage of MBO throughout the study is recorded as well.

SMILES: CC1CN(CN2COC(C)C2)CO1 (stereo not drawn) [MBO, 3,3′-methylenebis[5-methyloxazolidine]]
- Average reduction in biogenic sulfide ([1]; MBO 50 ppm): 37.03%
- Average Sulfide ([1]; MBO 50 ppm): 4.64 ppm
- Average reduction in biogenic sulfide ([1]; MBO 80 ppm): 93.81%
- Average Sulfide ([1]; MBO 80 ppm): 0.46 ppm
- Average Sulfide ([2]; MBO 80 ppm): 0.09 ppm
- Average reduction in biogenic sulfide ([2]; MBO 80 ppm): 98.4%
- Average Sulfide ([2]; MBO 120 ppm): 0.09 ppm
- Average reduction in biogenic sulfide ([2]; MBO 120 ppm): 98.4%
- Average Sulfide ([2]; MBO 150 ppm): 0.13 ppm
- Average reduction in biogenic sulfide ([2]; MBO 150 ppm): 97.8%
- Test Bioreactor Sulfide ([3]; Day 21 (as printed, between days 30 and 35), dosage of MBO 25 ppm, pH 8.5): 44.6 mg/L
- Test Bioreactor Sulfide ([3]; Day 30, dosage of MBO 25 ppm, pH 8.5): 34.9 mg/L
- Test Bioreactor Sulfide ([3]; Day 35, dosage of MBO 25 ppm, pH 8.5): 45.7 mg/L
- Test Bioreactor Sulfide ([3]; Day 37, dosage of MBO 50 ppm, pH 8.5): 46.2 mg/L
- Test Bioreactor Sulfide ([3]; Day 38, dosage of MBO 50 ppm, pH 8.5): 48.7 mg/L
- Test Bioreactor Sulfide ([3]; Day 42, dosage of MBO 50 ppm, pH 8.5): 44.8 mg/L
- Test Bioreactor Sulfide ([3]; Day 44, dosage of MBO 100 ppm, pH 8.5): 44.2 mg/L
- Test Bioreactor Sulfide ([3]; Day 45, dosage of MBO 100 ppm, pH 8.5): 41.0 mg/L
- Test Bioreactor Sulfide ([3]; Day 46, dosage of MBO 100 ppm, pH 8.5): 10.3 mg/L
- Test Bioreactor Sulfide ([3]; Day 49, dosage of MBO 100 ppm, pH 8.5): 3.1 mg/L
- Test Bioreactor Sulfide ([3]; Day 51, dosage of MBO 100 ppm, pH 8.5): 0.7 mg/L
- Test Bioreactor Sulfide ([3]; Day 52, dosage of MBO 100 ppm, pH 8.5): 0.5 mg/L
- Test Bioreactor Sulfide ([3]; Day 53, dosage of MBO 100 ppm, pH 8.5): 3.1 mg/L
- Test Bioreactor Sulfide ([3]; Day 56, dosage of MBO 100 ppm, pH 8.5): 5.3 mg/L
- Test Bioreactor Sulfide ([3]; Day 58, dosage of MBO 150 ppm, pH 8.5): 4.9 mg/L
- Test Bioreactor Sulfide ([3]; Day 60, dosage of MBO 150 ppm, pH 8.5): 1.0 mg/L
- Test Bioreactor Sulfide ([3]; Day 63, dosage of MBO 150 ppm, pH 8.5): 21.5 mg/L
- Test Bioreactor Sulfide ([3]; Day 65, dosage of MBO 150 ppm, pH 8.5): 19.9 mg/L
- Test Bioreactor Sulfide ([3]; Day 67, dosage of MBO 150 ppm, pH 8.5): 25.7 mg/L
- Test Bioreactor Sulfide ([3]; Day 70, dosage of MBO 150 ppm, pH 8.5): 29.1 mg/L
- Test Bioreactor Sulfide ([3]; Day 72, dosage of MBO 0 ppm (dosing paused after 150 ppm), pH 8.5): 29.4 mg/L
- Test Bioreactor Sulfide ([3]; Day 74, dosage of MBO 0 ppm (dosing paused after 150 ppm), pH 8.5): 21.9 mg/L
- Test Bioreactor Sulfide ([3]; Day 77, dosage of MBO 0 ppm (dosing paused after 150 ppm), pH 8.5): 32.0 mg/L
- Test Bioreactor Sulfide ([3]; Day 78, dosage of MBO 500 ppm (4 hours batch) + 80 ppm, pH 8.5): 37.2 mg/L
- Test Bioreactor Sulfide ([3]; Day 79, dosage of MBO 80 ppm after 500 ppm batch, pH 8.5): 37.8 mg/L
- Test Bioreactor Sulfide ([3]; Day 80, dosage of MBO 80 ppm after 500 ppm batch, pH 8.5): 23.0 mg/L
- Test Bioreactor Sulfide ([3]; Day 81, dosage of MBO 80 ppm after 500 ppm batch, pH 8.5): 27.7 mg/L
- Test Bioreactor Sulfide ([3]; Day 84, dosage of MBO 80 ppm after 500 ppm batch, pH 8.5): 31.8 mg/L
- Test Bioreactor Sulfide ([3]; Day 86, dosage of MBO 80 ppm after 500 ppm batch, pH 3.5 (so in the source)): 32.0 mg/L
- Test Bioreactor Sulfide ([3]; Day 88, dosage of MBO 0 ppm (dosing paused after 80 ppm), pH 8.5): 29.1 mg/L
- Test Bioreactor Sulfide ([3]; Day 91, dosage of MBO 0 ppm (dosing paused after 80 ppm), pH 8.5): 25.6 mg/L
- Test Bioreactor Sulfide ([3]; Day 93, dosage of MBO 500 ppm (4 hours batch) + 100 ppm, pH 8.5): 30.7 mg/L
- Test Bioreactor Sulfide ([3]; Day 94, dosage of MBO 100 ppm after 500 ppm batch, pH 8.5): 24.1 mg/L
- Test Bioreactor Sulfide ([3]; Day 95, dosage of MBO 100 ppm after 500 ppm batch, pH 8.5): 24.2 mg/L
- Test Bioreactor Sulfide ([3]; Day 98, dosage of MBO 100 ppm after 500 ppm batch, pH 8.5): 20.3 mg/L
- Test Bioreactor Sulfide ([3]; Day 100, dosage of MBO 100 ppm, pH 7.5): 20.1 mg/L
- Test Bioreactor Sulfide ([3]; Day 101, dosage of MBO 100 ppm, pH 7.5): 9.9 mg/L
- Test Bioreactor Sulfide ([3]; Day 102, dosage of MBO 100 ppm, pH 7.5): 16.6 mg/L
- Test Bioreactor Sulfide ([3]; Day 105, dosage of MBO 100 ppm, pH 7.5): 22.5 mg/L
- Test Bioreactor Sulfide ([3]; Day 107, dosage of MBO 100 ppm, pH 6.5): 20.2 mg/L
- Test Bioreactor Sulfide ([3]; Day 108, dosage of MBO 100 ppm, pH 6.5): 23.4 mg/L
- Test Bioreactor Sulfide ([3]; Day 109, dosage of MBO 100 ppm, pH 6.5): 20.9 mg/L
- Test Bioreactor Sulfide ([3]; Day 112, dosage of MBO 100 ppm, pH 6.5): 18.2 mg/L
- Test Bioreactor Sulfide ([3]; Day 114, dosage of MBO 150 ppm, pH 6.5): 16.3 mg/L
- Test Bioreactor Sulfide ([3]; Day 115, dosage of MBO 150 ppm, pH 6.5): 7.7 mg/L
- Test Bioreactor Sulfide ([3]; Day 116, dosage of MBO 150 ppm, pH 6.5): 2.9 mg/L
- Test Bioreactor Sulfide ([3]; Day 119, dosage of MBO 150 ppm, pH 6.5): 0.7 mg/L
- Test Bioreactor Sulfide ([3]; Day 121, dosage of MBO 150 ppm, pH 6.5): 0.5 mg/L
- Test Bioreactor Sulfide ([3]; Day 122, dosage of MBO 150 ppm, pH 6.5): 0.5 mg/L
- Test Bioreactor Sulfide ([3]; Day 123, dosage of MBO 150 ppm, pH 6.5): 0.5 mg/L
- Test Bioreactor Sulfide ([3]; Day 126, dosage of MBO 150 ppm, pH 6.5): 0.5 mg/L
- Test Bioreactor Sulfide ([3]; Day 128, dosage of MBO 100 ppm (decreasing increments), pH 6.5): 0.5 mg/L
- Test Bioreactor Sulfide ([3]; Day 129, dosage of MBO 100 ppm (decreasing increments), pH 6.5): 0.5 mg/L
- Test Bioreactor Sulfide ([3]; Day 130, dosage of MBO 100 ppm (decreasing increments), pH 6.5): 0.5 mg/L
- Test Bioreactor Sulfide ([3]; Day 133, dosage of MBO 100 ppm (decreasing increments), pH 6.5): 0.5 mg/L
- Test Bioreactor Sulfide ([3]; Day 135, dosage of MBO 80 ppm (decreasing increments), pH 6.5): 0.5 mg/L
- Test Bioreactor Sulfide ([3]; Day 136, dosage of MBO 80 ppm (decreasing increments), pH 6.5): 0.5 mg/L
- Test Bioreactor Sulfide ([3]; Day 137, dosage of MBO 80 ppm (decreasing increments), pH 6.5): 0.5 mg/L
- Test Bioreactor Sulfide ([3]; Day 140, dosage of MBO 80 ppm (decreasing increments), pH 6.5): 0.5 mg/L
- Test Bioreactor Sulfide ([3]; Day 141, dosage of MBO 50 ppm (decreasing increments), pH 6.5): 0.5 mg/L
- Test Bioreactor Sulfide ([3]; Day 144, dosage of MBO 50 ppm (decreasing increments), pH 6.5): 0.5 mg/L
- Test Bioreactor Sulfide ([3]; Day 147, dosage of MBO 50 ppm (decreasing increments), pH 6.5): 0.5 mg/L
- Test Bioreactor Sulfide ([3]; Day 150, dosage of MBO 0 ppm (dosing ceased at end of study), pH 6.5): 0.5 mg/L
- Test Bioreactor Sulfide ([3]; Day 151, dosage of MBO 0 ppm (dosing ceased at end of study), pH 6.5): 0.5 mg/L
- Test Bioreactor Sulfide ([3]; Day 154, dosage of MBO 0 ppm (dosing ceased at end of study), pH 6.5): 0.5 mg/L
- sulfide levels in the test bioreactor, lowest reached ([3]; dosage of MBO at 100 ppm, initial decrease, sulfide levels started to increase again afterwards): 0.5 mg/L
- sulfide levels in the test bioreactor ([3]; pH 6.5, dosing MBO at 150 ppm, stayed throughout remainder of study through decreasing dosages): 0.5 mg/L
- effect on sulfide levels in the test bioreactor ([3]; two high batch dosages of MBO at 500 ppm followed by low continuous dosage at 80 and 100 ppm): did not further decrease sulfide levels
